Tests used:
[1] = target: Serine/threonine-protein kinase PAK 5 (Homo sapiens, UniProt Q9P286); experiment: Inhibition of PAK5 (unknown origin) at 0.1 uM relative to control
[2] = target: Serine/threonine-protein kinase N1 (Homo sapiens) (UniProt Q16512); experiment: Inhibition of PRK1 (unknown origin) at 0.1 uM relative to control
[3] = target: Tyrosine-protein kinase ABL1 (Homo sapiens) (UniProt P00519); experiment: Inhibition of Abl (unknown origin) at 0.1 uM relative to control
[4] = target: Macrophage colony-stimulating factor 1 receptor (Homo sapiens) (UniProt P07333); experiment: Inhibition of CSF1R (unknown origin) at 0.1 uM relative to control
[5] = target: Macrophage-stimulating protein receptor (Homo sapiens) (UniProt Q04912); experiment: Inhibition of Ron (unknown origin) at 0.1 uM relative to control
[6] = target: Dual specificity mitogen-activated protein kinase kinase 1 (Homo sapiens) (UniProt Q02750); experiment: Inhibition of MEK1 (unknown origin) at 0.1 uM relative to control
[7] = target: Mitogen-activated protein kinase 9 (Homo sapiens) (UniProt P45984); experiment: Inhibition of JNK2 (unknown origin) at 0.1 uM relative to control
[8] = target: Casein kinase I isoform epsilon (Homo sapiens) (UniProt P49674); experiment: Inhibition of CK1epsilon (unknown origin) at 0.1 uM relative to control
[9] = test system: RAF proto-oncogene serine/threonine-protein kinase (Homo sapiens), P04049 [Y340D,Y341D]; experiment: Inhibition of RAF1 Y340D/Y341D double mutant (unknown origin) at 0.1 uM relative to control
[10] = target: Casein kinase II subunit alpha (Homo sapiens) (UniProt P68400); experiment: Inhibition of CK2alpha1 (unknown origin) at 0.1 uM relative to control
[11] = target: MAP/microtubule affinity-regulating kinase 3 (Homo sapiens) (UniProt P27448); experiment: Inhibition of MARK3 (unknown origin) at 0.1 uM relative to control
[12] = target: Homeodomain-interacting protein kinase 4 (Homo sapiens) (UniProt Q8NE63); experiment: Inhibition of HIPK4 (unknown origin) at 0.1 uM relative to control
[13] = target: Inhibitor of nuclear factor kappa-B kinase subunit beta (Homo sapiens) (UniProt O14920); experiment: Inhibition of IKK beta (unknown origin) at 0.1 uM relative to control
[14] = target: Myosin light chain kinase 2, skeletal/cardiac muscle (Homo sapiens) (UniProt Q9H1R3); experiment: Inhibition of MYLK2 (unknown origin) at 0.1 uM relative to control
[15] = target: Serine/threonine-protein kinase PLK3 (Homo sapiens) (UniProt Q9H4B4); experiment: Inhibition of PLK3 (unknown origin) at 0.1 uM relative to control
[16] = target: Mitogen-activated protein kinase kinase kinase 8 (Homo sapiens) (UniProt P41279); experiment: Inhibition of Cot (unknown origin) at 0.1 uM relative to control
[17] = target: Fibroblast growth factor receptor 3 (Homo sapiens) (UniProt P22607); experiment: Inhibition of FGFR3 (unknown origin) at 0.1 uM relative to control
[18] = target: Cyclin-dependent kinase 1/cyclin B1 (Homo sapiens) (UniProt P06493+P14635); experiment: Inhibition of CDK1/cyclinB (unknown origin) at 0.1 uM relative to control; type: protein-complex assay
[19] = target: Serine/threonine-protein kinase PAK 6 (Homo sapiens, UniProt Q9NQU5); experiment: Inhibition of PAK6 (unknown origin) at 0.1 uM relative to control
[20] = target: Mitogen-activated protein kinase 13 (Homo sapiens) (UniProt O15264); experiment: Inhibition of p38delta (unknown origin) at 0.1 uM relative to control
[21] = target: Tyrosine-protein kinase JAK2 (Homo sapiens) (UniProt O60674); experiment: Inhibition of JAK2 (unknown origin) at 0.1 uM relative to control
[22] = target: Ribosomal protein S6 kinase alpha-3 (Homo sapiens) (UniProt P51812); experiment: Inhibition of Rsk2 (unknown origin) at 0.1 uM relative to control
[23] = target: Serine/threonine-protein kinase pim-1 (Homo sapiens) (UniProt P11309); experiment: Inhibition of PIM1 (unknown origin) at 0.1 uM relative to control
[24] = target: Tyrosine-protein kinase ZAP-70 (Homo sapiens) (UniProt P43403); experiment: Inhibition of ZAP-70 (unknown origin) at 0.1 uM relative to control
[25] = target: Tyrosine-protein kinase SYK (Homo sapiens) (UniProt P43405); experiment: Inhibition of Syk (unknown origin) at 0.1 uM relative to control
[26] = target: Phosphorylase b kinase gamma catalytic chain, skeletal muscle/heart isoform (Homo sapiens) (UniProt Q16816); experiment: Inhibition of PhKgamma1 (unknown origin) at 0.1 uM relative to control
[27] = target: Activin receptor type-1B (Homo sapiens) (UniProt P36896); experiment: Inhibition of ACVRB (unknown origin) at 0.1 uM relative to control
[28] = target: Fibroblast growth factor receptor 1 (Homo sapiens) (UniProt P11362); experiment: Inhibition of FGFR1 (unknown origin) at 0.1 uM relative to control
[29] = target: Receptor tyrosine-protein kinase erbB-4 (Homo sapiens) (UniProt Q15303); experiment: Inhibition of ErbB4 (unknown origin) at 0.1 uM relative to control
[30] = target: Proto-oncogene tyrosine-protein kinase receptor Ret (Homo sapiens) (UniProt P07949); experiment: Inhibition of Ret (unknown origin) at 0.1 uM relative to control
[31] = target: Insulin-like growth factor 1 receptor (Homo sapiens) (UniProt P08069); experiment: Inhibition of IGF1R (unknown origin) at 0.1 uM relative to control
[32] = target: Vascular endothelial growth factor receptor 2 (Homo sapiens) (UniProt P35968); experiment: Inhibition of KDR (unknown origin) at 0.1 uM relative to control
[33] = target: Fibroblast growth factor receptor 2 (Homo sapiens) (UniProt P21802); experiment: Inhibition of FGFR2 (unknown origin) at 0.1 uM relative to control
[34] = target: Serine/threonine-protein kinase SIK2 (Homo sapiens) (UniProt Q9H0K1); experiment: Inhibition of SIK2 (unknown origin) at 0.1 uM relative to control
[35] = target: Hepatocyte growth factor receptor (Homo sapiens) (UniProt P08581); experiment: Inhibition of Met (unknown origin) at 0.1 uM relative to control
[36] = target: Serine/threonine-protein kinase B-raf (Homo sapiens) (UniProt P15056); experiment: Inhibition of B-Raf (unknown origin) at 0.1 uM relative to control
[37] = target: Ribosomal protein S6 kinase alpha-6 (Homo sapiens) (UniProt Q9UK32); experiment: Inhibition of Rsk4 (unknown origin) at 0.1 uM relative to control
[38] = target: Glycogen synthase kinase-3 alpha (Homo sapiens) (UniProt P49840); experiment: Inhibition of GSK3alpha (unknown origin) at 0.1 uM relative to control
[39] = target: Tyrosine-protein kinase Blk (Homo sapiens) (UniProt P51451); experiment: Inhibition of Blk (unknown origin) at 0.1 uM relative to control

Chain of Fibroblast growth factor receptor 2 (Homo sapiens) (P21802 22-821 limits assumed): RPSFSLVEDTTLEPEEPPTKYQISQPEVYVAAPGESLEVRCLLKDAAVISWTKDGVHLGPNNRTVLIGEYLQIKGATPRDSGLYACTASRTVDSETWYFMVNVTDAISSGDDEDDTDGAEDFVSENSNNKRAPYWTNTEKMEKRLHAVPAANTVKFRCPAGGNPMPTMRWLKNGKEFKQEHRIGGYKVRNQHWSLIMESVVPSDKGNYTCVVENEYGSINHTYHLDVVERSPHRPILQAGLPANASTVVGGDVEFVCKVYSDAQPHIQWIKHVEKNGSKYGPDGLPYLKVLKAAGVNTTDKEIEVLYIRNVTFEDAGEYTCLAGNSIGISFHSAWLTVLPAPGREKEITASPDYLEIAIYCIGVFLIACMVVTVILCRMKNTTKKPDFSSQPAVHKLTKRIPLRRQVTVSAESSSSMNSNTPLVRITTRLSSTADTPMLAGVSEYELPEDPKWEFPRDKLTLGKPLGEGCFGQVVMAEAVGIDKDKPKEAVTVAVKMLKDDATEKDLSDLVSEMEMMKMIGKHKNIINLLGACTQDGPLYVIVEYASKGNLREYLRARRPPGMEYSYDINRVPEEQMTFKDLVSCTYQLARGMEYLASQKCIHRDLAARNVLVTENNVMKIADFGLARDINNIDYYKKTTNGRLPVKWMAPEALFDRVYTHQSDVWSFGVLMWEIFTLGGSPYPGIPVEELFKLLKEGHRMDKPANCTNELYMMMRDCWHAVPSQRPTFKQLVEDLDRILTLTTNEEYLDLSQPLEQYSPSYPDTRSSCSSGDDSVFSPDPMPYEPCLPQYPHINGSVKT
Chain of Serine/threonine-protein kinase SIK2 (Homo sapiens) (Q9H0K1 whole entry, looked up): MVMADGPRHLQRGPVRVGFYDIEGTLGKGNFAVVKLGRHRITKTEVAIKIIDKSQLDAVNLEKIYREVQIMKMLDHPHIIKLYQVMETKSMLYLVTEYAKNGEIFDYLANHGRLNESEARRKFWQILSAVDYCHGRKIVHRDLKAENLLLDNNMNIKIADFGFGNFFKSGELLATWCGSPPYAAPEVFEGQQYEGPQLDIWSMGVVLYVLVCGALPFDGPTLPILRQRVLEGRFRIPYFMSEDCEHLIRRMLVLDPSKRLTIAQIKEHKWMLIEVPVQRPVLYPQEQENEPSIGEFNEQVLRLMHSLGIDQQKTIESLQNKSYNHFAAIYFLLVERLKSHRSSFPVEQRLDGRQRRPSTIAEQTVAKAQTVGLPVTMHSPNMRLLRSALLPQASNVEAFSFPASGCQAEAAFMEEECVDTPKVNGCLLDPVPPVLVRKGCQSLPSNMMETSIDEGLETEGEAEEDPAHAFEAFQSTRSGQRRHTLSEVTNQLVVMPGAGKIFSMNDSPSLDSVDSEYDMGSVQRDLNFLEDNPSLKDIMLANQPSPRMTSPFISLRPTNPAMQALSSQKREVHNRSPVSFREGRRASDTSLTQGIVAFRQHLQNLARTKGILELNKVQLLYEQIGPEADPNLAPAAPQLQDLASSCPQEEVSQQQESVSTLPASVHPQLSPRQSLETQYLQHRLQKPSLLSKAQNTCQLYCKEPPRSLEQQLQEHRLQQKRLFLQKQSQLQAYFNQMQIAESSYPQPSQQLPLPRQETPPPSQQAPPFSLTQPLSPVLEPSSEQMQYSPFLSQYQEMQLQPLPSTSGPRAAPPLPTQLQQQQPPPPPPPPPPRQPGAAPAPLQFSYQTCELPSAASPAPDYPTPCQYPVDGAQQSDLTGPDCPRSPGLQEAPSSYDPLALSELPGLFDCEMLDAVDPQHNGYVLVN
Chain of Serine/threonine-protein kinase PAK 5 (Q9P286 whole entry, looked up): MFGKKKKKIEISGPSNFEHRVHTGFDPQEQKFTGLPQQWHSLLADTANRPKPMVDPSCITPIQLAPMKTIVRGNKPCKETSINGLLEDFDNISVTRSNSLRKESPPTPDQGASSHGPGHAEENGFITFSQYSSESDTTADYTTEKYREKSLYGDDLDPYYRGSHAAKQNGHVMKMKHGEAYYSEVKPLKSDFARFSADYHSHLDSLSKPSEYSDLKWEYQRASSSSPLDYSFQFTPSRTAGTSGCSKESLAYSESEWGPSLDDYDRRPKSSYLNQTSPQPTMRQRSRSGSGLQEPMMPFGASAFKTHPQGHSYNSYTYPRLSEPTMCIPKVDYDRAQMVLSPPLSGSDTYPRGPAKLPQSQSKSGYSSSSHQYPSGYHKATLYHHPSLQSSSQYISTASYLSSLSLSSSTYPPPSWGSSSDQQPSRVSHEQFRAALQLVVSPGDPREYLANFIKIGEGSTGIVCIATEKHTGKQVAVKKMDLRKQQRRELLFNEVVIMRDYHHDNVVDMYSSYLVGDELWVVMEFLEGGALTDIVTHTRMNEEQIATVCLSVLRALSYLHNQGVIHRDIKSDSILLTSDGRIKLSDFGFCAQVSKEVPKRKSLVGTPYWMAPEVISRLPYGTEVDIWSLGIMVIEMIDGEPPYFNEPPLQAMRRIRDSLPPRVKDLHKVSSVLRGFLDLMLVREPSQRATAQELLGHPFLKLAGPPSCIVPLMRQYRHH
Chain of Insulin-like growth factor 1 receptor (Homo sapiens) (P08069 31-736 limits assumed): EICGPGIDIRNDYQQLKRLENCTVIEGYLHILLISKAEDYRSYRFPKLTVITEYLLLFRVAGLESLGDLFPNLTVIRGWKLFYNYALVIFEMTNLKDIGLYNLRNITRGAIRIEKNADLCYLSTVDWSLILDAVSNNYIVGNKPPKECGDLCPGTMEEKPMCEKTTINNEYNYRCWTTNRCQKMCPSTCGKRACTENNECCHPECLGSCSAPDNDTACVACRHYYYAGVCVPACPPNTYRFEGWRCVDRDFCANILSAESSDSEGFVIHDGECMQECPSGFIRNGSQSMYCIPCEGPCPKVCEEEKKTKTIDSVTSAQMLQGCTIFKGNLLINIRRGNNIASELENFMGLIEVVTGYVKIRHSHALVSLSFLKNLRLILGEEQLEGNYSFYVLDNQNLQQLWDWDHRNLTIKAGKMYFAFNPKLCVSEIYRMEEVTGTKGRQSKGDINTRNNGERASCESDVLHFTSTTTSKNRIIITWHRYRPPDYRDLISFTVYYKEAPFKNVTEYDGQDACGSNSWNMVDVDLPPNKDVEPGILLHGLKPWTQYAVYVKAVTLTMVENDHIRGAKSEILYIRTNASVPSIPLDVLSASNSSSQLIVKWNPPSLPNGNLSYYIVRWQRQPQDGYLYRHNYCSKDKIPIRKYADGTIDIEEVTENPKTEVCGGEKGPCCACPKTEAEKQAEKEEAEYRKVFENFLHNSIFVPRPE
Chain of Insulin-like growth factor 1 receptor (Homo sapiens) (P08069 741-1367 limits assumed): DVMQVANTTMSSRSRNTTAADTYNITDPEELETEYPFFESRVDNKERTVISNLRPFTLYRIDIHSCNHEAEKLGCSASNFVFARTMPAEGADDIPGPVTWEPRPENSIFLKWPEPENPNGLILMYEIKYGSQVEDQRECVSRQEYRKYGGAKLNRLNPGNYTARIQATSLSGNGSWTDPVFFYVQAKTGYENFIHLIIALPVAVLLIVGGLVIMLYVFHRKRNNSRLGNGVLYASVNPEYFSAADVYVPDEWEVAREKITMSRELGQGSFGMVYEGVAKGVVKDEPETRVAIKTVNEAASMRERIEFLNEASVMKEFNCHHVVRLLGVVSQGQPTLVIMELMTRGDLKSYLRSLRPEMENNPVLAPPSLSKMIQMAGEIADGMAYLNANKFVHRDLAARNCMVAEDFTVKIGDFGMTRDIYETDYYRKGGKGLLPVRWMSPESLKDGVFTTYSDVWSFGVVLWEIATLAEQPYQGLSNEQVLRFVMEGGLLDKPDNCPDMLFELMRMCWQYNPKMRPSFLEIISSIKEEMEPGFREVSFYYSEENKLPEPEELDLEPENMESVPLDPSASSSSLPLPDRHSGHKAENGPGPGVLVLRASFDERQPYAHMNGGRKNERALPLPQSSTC
Chain of Fibroblast growth factor receptor 3 (Homo sapiens) (P22607 23-806 limits assumed): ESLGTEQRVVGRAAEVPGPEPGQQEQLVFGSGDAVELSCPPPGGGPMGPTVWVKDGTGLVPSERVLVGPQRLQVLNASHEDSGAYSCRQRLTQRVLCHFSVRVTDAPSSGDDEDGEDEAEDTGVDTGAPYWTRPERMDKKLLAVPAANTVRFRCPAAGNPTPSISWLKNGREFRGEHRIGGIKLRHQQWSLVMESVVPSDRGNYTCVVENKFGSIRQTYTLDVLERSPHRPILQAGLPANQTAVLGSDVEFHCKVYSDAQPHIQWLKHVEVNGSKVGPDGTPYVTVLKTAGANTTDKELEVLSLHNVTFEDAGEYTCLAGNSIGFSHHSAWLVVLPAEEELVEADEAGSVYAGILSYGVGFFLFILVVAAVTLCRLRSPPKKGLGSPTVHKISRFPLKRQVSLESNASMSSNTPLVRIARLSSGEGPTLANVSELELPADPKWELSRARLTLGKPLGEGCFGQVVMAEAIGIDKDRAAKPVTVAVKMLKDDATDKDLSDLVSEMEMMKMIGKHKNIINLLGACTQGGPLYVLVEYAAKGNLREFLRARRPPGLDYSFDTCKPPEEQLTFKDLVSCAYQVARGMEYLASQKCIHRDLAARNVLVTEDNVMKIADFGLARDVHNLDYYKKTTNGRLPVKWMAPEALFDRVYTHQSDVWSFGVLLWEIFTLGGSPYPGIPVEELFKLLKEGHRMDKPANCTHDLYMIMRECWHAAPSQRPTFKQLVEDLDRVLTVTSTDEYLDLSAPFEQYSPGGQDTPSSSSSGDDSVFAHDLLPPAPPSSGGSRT
Chain of Mitogen-activated protein kinase 9 (Homo sapiens) (P45984 whole entry, looked up, canonical isoform): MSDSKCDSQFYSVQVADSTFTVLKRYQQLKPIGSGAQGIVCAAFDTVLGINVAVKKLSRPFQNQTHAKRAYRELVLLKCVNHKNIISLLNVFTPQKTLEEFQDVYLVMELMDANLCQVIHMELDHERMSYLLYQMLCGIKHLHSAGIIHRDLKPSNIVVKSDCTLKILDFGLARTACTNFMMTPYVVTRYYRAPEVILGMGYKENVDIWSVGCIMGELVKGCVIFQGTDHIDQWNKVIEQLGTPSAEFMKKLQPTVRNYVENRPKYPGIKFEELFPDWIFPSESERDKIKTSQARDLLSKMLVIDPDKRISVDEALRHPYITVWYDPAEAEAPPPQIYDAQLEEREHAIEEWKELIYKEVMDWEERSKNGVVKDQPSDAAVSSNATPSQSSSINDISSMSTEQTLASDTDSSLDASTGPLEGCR

SMILES	inhibition [1] [%]	inhibition [2] [%]	inhibition [3] [%]	inhibition [4] [%]	inhibition [5] [%]	inhibition [6] [%]	inhibition [7] [%]	inhibition [8] [%]	inhibition [9] [%]	inhibition [10] [%]	inhibition [11] [%]	inhibition [12] [%]	inhibition [13] [%]	inhibition [14] [%]	inhibition [15] [%]	inhibition [16] [%]	inhibition [17] [%]	inhibition [18] [%]	inhibition [19] [%]	inhibition [20] [%]	further results
COCCNc1nc2ccc(C#CC3(O)CCCCC3)cc2n1-c1ccnc(N)n1	75.1	-2.3	-0.2	2.5	0.3	2.5	-1	7.3	7.6	5.2	5.5	5	6.5	-1.5	9.2	2.8	7.6	8.1	49.9	8.4	inhibition [21]: 3.4%; inhibition [22]: 11.7%; inhibition [23]: 3.8%; inhibition [24]: 2.4%; inhibition [25]: 4.3%; inhibition [26]: 12.5%; inhibition [27]: -0.1%; inhibition [28]: -4.5%; inhibition [29]: -1%; inhibition [30]: 4.4%; inhibition [31]: 2.9%; inhibition [32]: -3.1%; inhibition [33]: 6.8%; inhibition [34]: 0.8%; inhibition [35]: 2.6%; inhibition [36]: 8.2%; inhibition [37]: 2.4%; inhibition [38]: 9.7%; inhibition [39]: 7.2%
CN1CCc2cc(-c3cnc4[nH]cc(C(=O)c5ccccc5Cl)c4c3)ccc2C1	28.5	-1.6	99.5	85.7	92.1	23.8	14.8	44	-4.8	-3.5	37	18.6	3.3	25.5	-5.8	19.6	45.5	16.5	21.8	5.1	inhibition [21]: 50.3%; inhibition [22]: 6%; inhibition [23]: -2%; inhibition [24]: 4.5%; inhibition [25]: 37.1%; inhibition [26]: 8.3%; inhibition [27]: 79.3%; inhibition [28]: 83%; inhibition [29]: 78.9%; inhibition [30]: 18.4%; inhibition [31]: 6.5%; inhibition [32]: 72.2%; inhibition [33]: 55.6%; inhibition [34]: 96.3%; inhibition [35]: 13.3%; inhibition [36]: 49%; inhibition [37]: 11.9%; inhibition [38]: 40.6%; inhibition [39]: 86%

— ChEMBL document CHEMBL5678812, “Inhibitors of p21-activated kinases (PAKs)” (J Med Chem, 2015)
